Reference: US11208418B2, “Nitrogenous tricyclic compounds and uses thereof in medicine” (SUNSHINE LAKE PHARMA CO., LTD., priority 2018, dated 2021)

Assays:
[1] = Liver microsome stability test; format: in vitro ADME; conditions: rat liver microsomes, compound 1 μM, 0.5 mg/mL microsome, 37° C.; for half-life at 1 μM: pH 7.4
Method: The solution of compound in DMSO (10 mM) was diluted with a mixed solvent of acetonitrile and water (1:1, v/v) to get a 100 μM compound solution, and then the 100 μM compound solution was diluted with potassium phosphate buffer (0.1 M, pH 7.4) to get a 3 μM compound solution. NADPH was formulated with potassium phosphate buffer (0.1 M, pH 7.4) to NADPH solution (6 mM). Rat liver microsome was formulated with potassium phosphate buffer (0.1 M, pH 7.4) to liver microsome solution (1.5 mg/mL).
The total volume of incubation mixture was 45 μL, including 15 μL rat liver microsome solution (1.5 mg/mL), 15 μL compound solution (3 μM) and 15 μL NADPH solution (6 mM), the final concentration of liver microsome in the incubation mixture was 0.5 mg/mL, the compound concentration was 1 μM, the NADPH concentration was 2 mM.
The incubation mixture was incubated at 37° C. The reaction was terminated by adding 120 μL acetonitrile solution containing internal standard at different time points (20 min and 60 min), and centrifuged at 4000 rpm for 5 min. The supernatant was took out and analyzed by LC-MS/MS.
At the same time, a parallel incubation test was set up, using inactivated rat liver microsomes as negative control and verapamil at the same concentration as positive control. The reaction was incubated at 37° C. and terminated at different time points (20 minutes and 60 minutes).
The ratio of sample peak area to internal standard peak area was obtained by analyzing through LC/MS/MS, the drug content of the negative control was as 100%, the drug relative content at each time point was calculated. The rate constant was obtained by plotting based on “Log[compound concentration]” to “incubating time”, and then the half-life T1/2 and intrinsic clearance CLHep of the compound were calculated.

[2] = molecular target: farnesoid X receptor protein (Homo sapiens (Human), UniProt Q96RI1); experiment: Coactivation of TR-FRET farnesoid X receptor protein (Invitrogen PV4833 Kit); format: biochemical; conditions: TR-FRET coactivator recruitment, Fluorescein-SRC2-2, 1 hour at room temperature
Sequence of farnesoid X receptor protein (Q96RI1 262-486, other chains not shown): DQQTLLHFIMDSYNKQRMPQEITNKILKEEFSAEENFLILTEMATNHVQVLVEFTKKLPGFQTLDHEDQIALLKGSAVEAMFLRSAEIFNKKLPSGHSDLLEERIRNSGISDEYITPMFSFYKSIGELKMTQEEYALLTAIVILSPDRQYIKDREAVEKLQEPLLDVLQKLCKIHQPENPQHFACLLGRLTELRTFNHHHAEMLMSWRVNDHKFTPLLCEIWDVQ
Method: Purchasing Invitrogen PV4833 Kit.
Step 1, the compound was weighed and dissolved in 100% DMSO, the highest concentration is 3000 μM, and then diluted with DMSO by 3-fold serial dilution to get 10 concentrations.
Step 2, the above formulated compound solutions were diluted 100 times with the buffer provided in the kit, which were mixed respectively and 10 μL of which were added into a 384 well plate in turn.
Step 3, FXR recombinant nucleo receptor protein was diluted with a buffer to formulate 4× concentration, and 5 μL of which was added into the above 384 well plate containing the compound.
Step 4, Fluorescein-SRC2-2 and Tb anti-GST antibody were diluted with a buffer respectively, both concentration are 4×, after the two reagents were mixed together, 10 μL of which was added into the 384 well plate described in step 3.
At last, the solution in the 384 well plate was blend by centrifugation, and then incubated at room temperature for 1 hour.

[3] = Pharmacokinetic test in SD rats; format: in vivo; conditions: male, rat, plasma
Method: Experimental animals: 6 healthy male adult SD rats (purchased from Hunan SJA Laboratory Animal Co.; Ltd) were randomized into 2 groups, 3 in each group, the groups were administered by intravenous injection and gavage respectively.
Preparation of drugs: an amount of the compound was scaled, and the target concentrate of the compound was prepared by addition of 5% DMSO, 10% Kolliphor HS15 and 85% saline (0.9%).
Administration and samples collection: the animals were fasted 12 hours before administration and provided again 3 hours post-administration, SD rats were administrated by intravenous injection from hindlimb peduncular veins (1 mg/kg) and by gavage (PO, 5 mg/kg). 200-400 μL of blood was collected at different time points 0, 0.083, 0.25, 0.5, 1, 2, 4, 6, 8, 24 h from rats tail vein. Blood collection was 200-400 μL per time point. The blood collected at each time point was placed in K2EDTA anticoagulant tube, and stored at a couveuse with ice bags. All the samples in 15 min were centrifuged at 4600 r/min at 4° C. for 5 min, plasma samples were obtained, the concentrates of compound in the plasma samples were determined by LC/MS/MS, the pharmacokinetic parameters were calculated based on the drug concentration-time curve.

SMILES | half-life at 1 μM [1] [min] | ClHep [1] [mL/min/kg] | EC50 [2] [nM] | AUC(0-inf) ([3]; iv, 1 mg/kg) [ng·h/mL] | AUC(0-t) ([3]; iv, 1 mg/kg) [ng·h/mL] | Cmax ([3]; iv, 1 mg/kg) [ng/mL] | MRT inf ([3]; iv, 1 mg/kg) [min] | Tmax ([3]; iv, 1 mg/kg) [min] | clearance ([3]; iv, 1 mg/kg) [mL/min/kg] | half-life ([3]; iv, 1 mg/kg) [min] | Vd ([3]; iv, 1 mg/kg, read-out: Vss) [L/kg] | bioavailability ([3]; po 5 mg/kg versus iv 1 mg/kg) [%] | AUC(0-inf) ([3]; po, 5 mg/kg) [ng·h/mL] | AUC(0-t) ([3]; po, 5 mg/kg) [ng·h/mL] | Cmax ([3]; po, 5 mg/kg) [ng/mL] | MRT inf ([3]; po, 5 mg/kg) [min] | Tmax ([3]; po, 5 mg/kg) [min] | half-life ([3]; po, 5 mg/kg) [min]
O=C(O)c1ccc2c(c1)Oc1ccc(OCc3c(-c4ccc(Cl)cc4Cl)noc3C3CC3)nc1C1(CC1)C2 [Example 5, 2-((5-cyclopropyl-3-(2,4-dichlorophenyl)isoxazol-4-yl)methoxy)-10H-spiro[benzo[6,7]oxepino[3,2-b]pyridine-11,1′-cyclopropane]-7-carboxylic acid] | 25 | 99.23 | – | – | – | – | – | – | – | – | – | – | – | – | – | – | – | –
O=C(O)c1ccc2c(c1)Oc1ccc(OCc3c(-c4ccccc4OC(F)(F)F)noc3C3CC3)nc1C1(CC1)C2 [Example 3, 2-((5-cyclopropyl-3-(2-(trifluoromethoxy)phenyl)isoxazol-4-yl)methoxy)-10H-Spiro[benzo[6,7]oxepino[3,2-b]pyridine-11,1′-cyclopropane]-7-carboxylic acid] | 26.8 | 92.61 | 8.6 | 1740 | 1730 | 1660 | 60.6 | 4.98 | 9.62 | 46.4 | 0.584 | 71.3 | 6210 | 6170 | 2320 | 103 | 60 | 53.5
O=C(O)c1ccc2c(c1)Oc1ccc(OCc3c(-c4ccccc4OC(F)(F)F)noc3C3CC3)nc1CC2 [Example 2, 2-((5-cyclopropyl-3-(2-(trifluoromethoxy)phenyl)isoxazol-4-yl)methoxy)-10,11-dihydrobenzo[6,7]oxepino[3,2-b]pyridine-7-carboxylic acid] | 28.8 | 86.33 | – | – | – | – | – | – | – | – | – | – | – | – | – | – | – | –
